Measured values as given in PubChem BioAssay AID248 (DTP/NCI, 2004).
“And” between values parts separate entries of the source, which are not always exact repeats. Equal entries are not always repeated. Toxic doses and inconclusive results are not listed. No stated cut-off is given here; in the data, active means T/C of 150% or more; inactive means T/C below 125%.

System: L1210 leukemia ip in BDF1 mice, survival T/C
Experiment: NCI In Vivo Anticancer Drug Screen. Data for tumor model L1210 Leukemia (intraperitoneal) in B6D2F1 (BDF1) mice
Conditions: endpoint: mean survival time, higher = longer survival
Experimental: The antitumor activity of compounds was measured in mice bearing transplantable tumors. Survival or tumor size were measured and the results are expressed as the measurement made in the treated group (T) divided by the measurement made in the vehicle treated control group (C). The tumor model used in this assay is L1210 Leukemia (intraperitoneal) in B6D2F1 (BDF1) mice

[1] = dose: 25.0 mg/kg/injection, schedule: Q01DX009 (ip), vehicle: Klucel (hydroxypropylcellulose) (HPC)
[2] = dose: 50.0 mg/kg/injection, schedule: Q01DX009 (ip), vehicle: Klucel (hydroxypropylcellulose) (HPC)
[3] = dose: 100.0 mg/kg/injection, schedule: Q04DX003 (ip), vehicle: saline with Tween-80
[4] = dose: 200.0 mg/kg/injection, schedule: Q04DX003 (ip), vehicle: saline with Tween-80
[5] = dose: 25.0 mg/kg/injection, schedule: Q04DX003 (ip), vehicle: saline
[6] = dose: 100.0 mg/kg/injection, schedule: Q04DX003 (ip), vehicle: saline
[7] = dose: 200.0 mg/kg/injection, schedule: Q04DX003 (ip), vehicle: saline
[8] = dose: 400.0 mg/kg/injection, schedule: Q04DX003 (ip), vehicle: saline
[9] = dose: 100.0 mg/kg/injection, schedule: Q01DX001 (ip), vehicle: carboxymethylcellulose (CMC)
[10] = dose: 200.0 mg/kg/injection, schedule: Q01DX001 (ip), vehicle: carboxymethylcellulose (CMC)
[11] = dose: 400.0 mg/kg/injection, schedule: Q01DX001 (ip), vehicle: carboxymethylcellulose (CMC)
[12] = dose: 400.0 mg/kg/injection, schedule: Q04DX003 (ip), vehicle: saline with Tween-80
[13] = dose: 100.0 mg/kg/injection, schedule: Q04DX002 (ip), vehicle: Klucel (hydroxypropylcellulose) (HPC)
[14] = dose: 200.0 mg/kg/injection, schedule: Q04DX002 (ip), vehicle: Klucel (hydroxypropylcellulose) (HPC)
[15] = dose: 50.0 mg/kg/injection, schedule: Q01DX001 (ip), vehicle: carboxymethylcellulose (CMC)
[16] = dose: 100.0 mg/kg/injection, schedule: Q01DX009 (ip), vehicle: Klucel (hydroxypropylcellulose) (HPC)
[17] = dose: 100.0 mg/kg/injection, schedule: Q04DX003 (ip), vehicle: Klucel (hydroxypropylcellulose) (HPC)
[18] = dose: 200.0 mg/kg/injection, schedule: Q01DX009 (ip), vehicle: Klucel (hydroxypropylcellulose) (HPC)
[19] = dose: 200.0 mg/kg/injection, schedule: Q04DX003 (ip), vehicle: Klucel (hydroxypropylcellulose) (HPC)
[20] = dose: 400.0 mg/kg/injection, schedule: Q04DX003 (ip), vehicle: Klucel (hydroxypropylcellulose) (HPC)

Measured: T/C

CCCCNC(=O)Oc1c(Cl)cc(Cl)c(Cl)c1[N+](=O)[O-]
inactive: dose: 12.5 mg/kg/injection, schedule: Q01DX009 (ip), vehicle: Klucel (hydroxypropylcellulose) (HPC) 96 % of control | [1] 112 % of control | [2] 101 % of control

CN(C)c1nc(=[N+](C)C)ss1
inactive: dose: 15.0 mg/kg/injection, schedule: Q01DX015 (ip), vehicle: saline 102 % of control | dose: 30.0 mg/kg/injection, schedule: Q01DX015 (ip), vehicle: saline 94 % of control | dose: 60.0 mg/kg/injection, schedule: Q01DX015 (ip), vehicle: saline 100 % of control | [3] 100 % of control | dose: 120.0 mg/kg/injection, schedule: Q01DX015 (ip), vehicle: saline 105 % of control | [4] 96 % of control

CCN(CC)c1cc[c]([Hg][O]C(C)=O)cc1
inactive: dose: 1.56 mg/kg/injection, schedule: Q04DX003 (ip), vehicle: saline with Tween-80 92 % of control | dose: 3.13 mg/kg/injection, schedule: Q04DX003 (ip), vehicle: saline with Tween-80 90 % of control | dose: 6.25 mg/kg/injection, schedule: Q04DX003 (ip), vehicle: saline with Tween-80 93 % of control and 94 % of control | dose: 12.5 mg/kg/injection, schedule: Q04DX003 (ip), vehicle: saline with Tween-80 93 % of control

Nc1[nH]c(=O)cc(O)c1N
inactive: dose: 12.5 mg/kg/injection, schedule: Q04DX003 (ip), vehicle: saline 108 % of control | [5] 105 % of control | [6] 98 % of control

C/C=N\NC(N)=O
inactive: [5] 94 % of control | dose: 50.0 mg/kg/injection, schedule: Q04DX003 (ip), vehicle: saline 100 % of control

CC(=O)C(N=Nc1nn[nH]n1)C(C)=O
inactive: [6] 104 % of control | [7] 93 % of control | [8] 96 % of control

C=CCC1(Cc2ccsc2)C(=O)NC(=O)NC1=O
inactive: [9] 90 % of control | [10] 92 % of control | [11] 100 % of control

O=C1NC(=O)C2C3OC(C(Br)C3Br)C12 (configuration not stated)
inactive: dose: 100.0 mg/kg/injection, schedule: Q01DX009 (ip), vehicle: acetone 86 % of control | [3] 93 % of control | dose: 200.0 mg/kg/injection, schedule: Q01DX009 (ip), vehicle: acetone 86 % of control | [4] 108 % of control | dose: 400.0 mg/kg/injection, schedule: Q01DX009 (ip), vehicle: acetone 88 % of control | [12] 95 % of control

CCCCNC(=O)NC(C)c1ccccc1 (configuration not stated)
inactive: [13] 112 % of control | [14] 112 % of control | dose: 400.0 mg/kg/injection, schedule: Q04DX002 (ip), vehicle: Klucel (hydroxypropylcellulose) (HPC) 105 % of control

CC(=O)Nc1cc(C)ns1
inactive: [15] 104 % of control | [9] 104 % of control | [10] 101 % of control | [11] 98 % of control

COc1ccc(NC(=O)Nc2ccccc2OC)cc1
inactive: dose: 100.0 mg/kg/injection, schedule: Q01DX009 (ip), vehicle: saline with Tween-80 98 % of control | [3] 105 % of control | dose: 200.0 mg/kg/injection, schedule: Q01DX009 (ip), vehicle: saline with Tween-80 101 % of control | [4] 97 % of control | dose: 400.0 mg/kg/injection, schedule: Q01DX009 (ip), vehicle: saline with Tween-80 98 % of control | [12] 103 % of control

O=C(O)c1ccc(NCc2cccc(N=Cc3ccccc3)c2)cc1
inactive: dose: 100.0 mg/kg/injection, schedule: Q01DX001 (ip), vehicle: saline with Tween-80 93 % of control | dose: 200.0 mg/kg/injection, schedule: Q01DX001 (ip), vehicle: saline with Tween-80 93 % of control | dose: 400.0 mg/kg/injection, schedule: Q01DX001 (ip), vehicle: saline with Tween-80 103 % of control

N=C(N[N+](=O)[O-])N(CCC(=O)O)N=O
inactive: dose: 50.0 mg/kg/injection, schedule: Q01DX001 (ip), vehicle: saline 100 % of control | dose: 50.0 mg/kg/injection, schedule: Q01DX009 (ip), vehicle: saline 90 % of control | dose: 53.0 mg/kg/injection, schedule: Q01DX015 (ip), vehicle: saline 113 % of control | dose: 79.0 mg/kg/injection, schedule: Q01DX015 (ip), vehicle: saline 124 % of control | dose: 100.0 mg/kg/injection, schedule: Q01DX001 (ip), vehicle: other 97 % of control | dose: 100.0 mg/kg/injection, schedule: Q01DX001 (ip), vehicle: saline 107 % of control | dose: 100.0 mg/kg/injection, schedule: Q01DX009 (ip), vehicle: other 103 % of control | dose: 100.0 mg/kg/injection, schedule: Q01DX009 (ip), vehicle: saline 96 % of control | [6] 96 % of control | dose: 178.0 mg/kg/injection, schedule: Q01DX001 (ip), vehicle: saline 109 % of control and 122 % of control | dose: 178.0 mg/kg/injection, schedule: Q01DX015 (ip), vehicle: saline 116 % of control | dose: 200.0 mg/kg/injection, schedule: Q01DX001 (ip), vehicle: other 101 % of control | dose: 200.0 mg/kg/injection, schedule: Q01DX001 (ip), vehicle: saline 113 % of control | dose: 200.0 mg/kg/injection, schedule: Q01DX009 (ip), vehicle: other 98 % of control | dose: 200.0 mg/kg/injection, schedule: Q01DX009 (ip), vehicle: saline 104 % of control | [7] 98 % of control | dose: 267.0 mg/kg/injection, schedule: Q01DX001 (ip), vehicle: saline 112 % of control and 121 % of control | dose: 400.0 mg/kg/injection, schedule: Q01DX001 (ip), vehicle: other 100 % of control | dose: 400.0 mg/kg/injection, schedule: Q01DX009 (ip), vehicle: other 98 % of control | dose: 400.0 mg/kg/injection, schedule: Q01DX009 (ip), vehicle: saline 100 % of control | [8] 91 % of control | dose: 600.0 mg/kg/injection, schedule: Q01DX001 (ip), vehicle: other 94 % of control | dose: 800.0 mg/kg/injection, schedule: Q01DX001 (ip), vehicle: other 92 % of control | dose: 800.0 mg/kg/injection, schedule: Q01DX001 (ip), vehicle: saline 86 % of control

O=C(O)c1cccnc1
inactive: [1] 103 % of control | dose: 25.0 mg/kg/injection, schedule: Q04DX003 (ip), vehicle: Klucel (hydroxypropylcellulose) (HPC) 91 % of control | [2] 100 % of control | dose: 50.0 mg/kg/injection, schedule: Q04DX003 (ip), vehicle: Klucel (hydroxypropylcellulose) (HPC) 89 % of control | [16] 96 % of control | [17] 100 % of control | [18] 95 % of control | [19] 91 % of control | [20] 107 % of control

COC(c1ccccc1)[CH]([Hg][Br])C(=O)OC1CC2CCC1(C)C2(C)C (configuration not stated)
inactive: [15] 93 % of control

Cc1ccc(S(=O)(=O)OC2(C(=O)c3ccccc3)CC3CCC2C3)cc1 (configuration not stated)
inactive: dose: 50.0 mg/kg/injection, schedule: Q01DX001 (ip), vehicle: Klucel (hydroxypropylcellulose) (HPC) 93 % of control | dose: 100.0 mg/kg/injection, schedule: Q01DX001 (ip), vehicle: Klucel (hydroxypropylcellulose) (HPC) 96 % of control | dose: 200.0 mg/kg/injection, schedule: Q01DX001 (ip), vehicle: Klucel (hydroxypropylcellulose) (HPC) 94 % of control

O=C1c2c(I)c(I)c(I)c(I)c2C(=O)N1CCO
inactive: [16] 92 % of control | [17] 94 % of control | [18] 97 % of control | [19] 97 % of control | dose: 400.0 mg/kg/injection, schedule: Q01DX009 (ip), vehicle: Klucel (hydroxypropylcellulose) (HPC) 104 % of control | [20] 92 % of control

COC(=O)C(COC1OC(COC(C)=O)C(OC(C)=O)C(OC(C)=O)C1NC(C)=O)NC(=O)OCc1ccccc1 (configuration not stated)
inactive: dose: 50.0 mg/kg/injection, schedule: Q04DX002 (ip), vehicle: Klucel (hydroxypropylcellulose) (HPC) 91 % of control | [13] 98 % of control | [14] 88 % of control
